The structures appear in SMILES notation. Peptide text beside a SMILES is read from it. * marks the point of attachment. Cbz = O=C(OCc1ccccc1)*

For series [1] the following is noted: cited from earlier work.
In series [2] the target is GFP‐tagged LRRK2 in transfected HEK293 cells (Homo sapiens, UniProt Q5S007). The experiment in a line: Ubiquitin assay. Format: cell-based. The settings on record: 24 h; for LRRK2 ubiquitination (ubiquitin signal): 10 µM, with or without 5 µM MG132, compared to DMSO.
In series [3] the target is purified full‐length Strep flag LRRK2 (Homo sapiens, UniProt Q5S007). Nature of the series: In vitro radioactive kinase assay. Format: biochemical.
Another series relates to kinome. Particulars: kinases hit out of panel of 187; cited from earlier work.
The test system of series [4] is LRRK2. Particulars: read-out: IC50 in the cellular assay; cited from earlier work.
Series [5] has as its target LRRK2. Particulars: read-out: Ki in the biochemical assay; cited from earlier work.

Sequence of GFP‐tagged LRRK2 in transfected HEK293 cells (Q5S007 whole entry): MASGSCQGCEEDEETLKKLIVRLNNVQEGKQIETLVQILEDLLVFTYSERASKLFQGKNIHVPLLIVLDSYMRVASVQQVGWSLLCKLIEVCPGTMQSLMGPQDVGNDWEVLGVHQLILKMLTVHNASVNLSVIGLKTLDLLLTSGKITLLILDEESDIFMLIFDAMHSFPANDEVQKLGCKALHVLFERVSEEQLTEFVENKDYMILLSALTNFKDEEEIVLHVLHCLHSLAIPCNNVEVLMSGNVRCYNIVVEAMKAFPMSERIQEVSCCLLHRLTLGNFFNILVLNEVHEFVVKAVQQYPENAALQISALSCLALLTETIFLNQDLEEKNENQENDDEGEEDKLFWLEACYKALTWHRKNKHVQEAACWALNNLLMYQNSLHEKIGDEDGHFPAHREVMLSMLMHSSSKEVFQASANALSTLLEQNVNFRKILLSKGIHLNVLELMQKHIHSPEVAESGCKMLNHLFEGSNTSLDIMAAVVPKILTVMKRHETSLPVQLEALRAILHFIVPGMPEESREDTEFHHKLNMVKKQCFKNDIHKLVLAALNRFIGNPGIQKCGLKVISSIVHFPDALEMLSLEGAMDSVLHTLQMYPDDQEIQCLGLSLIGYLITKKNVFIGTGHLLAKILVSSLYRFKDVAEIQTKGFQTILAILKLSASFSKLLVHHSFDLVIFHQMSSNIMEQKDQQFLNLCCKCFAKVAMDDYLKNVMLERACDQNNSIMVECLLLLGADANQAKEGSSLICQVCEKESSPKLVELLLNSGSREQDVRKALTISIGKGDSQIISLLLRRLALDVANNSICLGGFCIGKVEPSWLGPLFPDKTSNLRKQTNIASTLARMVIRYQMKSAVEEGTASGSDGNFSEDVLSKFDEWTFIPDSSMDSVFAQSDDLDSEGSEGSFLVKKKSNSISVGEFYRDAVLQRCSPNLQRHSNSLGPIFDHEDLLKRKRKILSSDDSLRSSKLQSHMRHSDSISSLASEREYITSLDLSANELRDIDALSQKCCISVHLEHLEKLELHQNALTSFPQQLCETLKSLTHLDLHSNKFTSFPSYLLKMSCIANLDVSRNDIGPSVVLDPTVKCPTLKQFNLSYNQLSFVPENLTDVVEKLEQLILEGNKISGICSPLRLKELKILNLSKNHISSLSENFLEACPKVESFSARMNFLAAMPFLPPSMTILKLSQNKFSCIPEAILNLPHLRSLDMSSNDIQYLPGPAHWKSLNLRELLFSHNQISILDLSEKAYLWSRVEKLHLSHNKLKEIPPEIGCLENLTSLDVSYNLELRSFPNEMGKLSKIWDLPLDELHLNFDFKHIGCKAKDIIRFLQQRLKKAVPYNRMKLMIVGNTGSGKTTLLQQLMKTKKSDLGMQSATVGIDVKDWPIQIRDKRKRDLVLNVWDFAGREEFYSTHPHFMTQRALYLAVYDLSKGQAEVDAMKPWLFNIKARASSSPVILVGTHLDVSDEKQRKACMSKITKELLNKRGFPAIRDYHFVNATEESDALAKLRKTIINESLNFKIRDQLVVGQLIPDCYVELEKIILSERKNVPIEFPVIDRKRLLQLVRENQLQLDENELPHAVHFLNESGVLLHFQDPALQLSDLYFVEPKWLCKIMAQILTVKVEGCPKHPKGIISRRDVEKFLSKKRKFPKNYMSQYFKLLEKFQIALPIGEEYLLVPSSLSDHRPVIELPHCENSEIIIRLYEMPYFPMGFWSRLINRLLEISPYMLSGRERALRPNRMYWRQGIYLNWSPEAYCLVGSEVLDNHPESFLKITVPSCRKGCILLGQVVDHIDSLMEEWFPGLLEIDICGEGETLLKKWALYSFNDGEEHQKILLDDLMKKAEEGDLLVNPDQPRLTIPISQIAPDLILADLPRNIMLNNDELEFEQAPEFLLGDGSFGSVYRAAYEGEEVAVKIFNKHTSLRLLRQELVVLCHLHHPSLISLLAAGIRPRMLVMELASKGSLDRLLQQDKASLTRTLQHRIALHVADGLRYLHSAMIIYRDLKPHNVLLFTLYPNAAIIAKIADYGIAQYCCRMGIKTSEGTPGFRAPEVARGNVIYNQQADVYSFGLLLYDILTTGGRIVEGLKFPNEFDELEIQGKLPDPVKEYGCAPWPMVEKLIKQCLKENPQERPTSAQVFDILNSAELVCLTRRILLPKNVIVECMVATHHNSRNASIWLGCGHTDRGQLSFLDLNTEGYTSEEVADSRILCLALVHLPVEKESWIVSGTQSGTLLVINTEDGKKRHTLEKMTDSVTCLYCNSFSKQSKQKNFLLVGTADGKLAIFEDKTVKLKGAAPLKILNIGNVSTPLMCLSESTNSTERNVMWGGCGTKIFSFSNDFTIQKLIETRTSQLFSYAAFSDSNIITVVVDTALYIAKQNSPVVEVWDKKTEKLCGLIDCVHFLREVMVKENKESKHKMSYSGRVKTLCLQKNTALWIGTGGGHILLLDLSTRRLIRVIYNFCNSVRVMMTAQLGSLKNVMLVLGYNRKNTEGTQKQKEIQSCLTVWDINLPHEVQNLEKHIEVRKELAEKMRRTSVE
Sequence of purified full‐length Strep flag LRRK2 (Q5S007 whole entry): as above

`CCNc1nc(Nc2cc(F)c(C(=O)N3CCOCC3)cc2OC)ncc1C(F)(F)F` [GNE‐7915]: in series [1], the brain penetration entry is given as “brain penetrant”. For the same molecule, the “LRRK2 ubiquitination (ubiquitin signal)” value in series [2] is recorded as “neither the original kinase inhibitor (11) nor PROTAC (33) increase LRRK2 ubiquitination”. The IC50 (commonly the midpoint of a concentration-inhibition curve) is 17.3 ± 6.76 nM in series [3] and 9 nM in the series with LRRK2 [4]. Besides, the kinome selectivity in the series with kinome was 1 out of 187. The Ki (in general, the equilibrium dissociation constant of an inhibitor or competing ligand from its target) on LRRK2 [5] was 2 nM.

With `CC(C)C[C@@H](C=O)NC(=O)[C@H](CC(C)C)NC(=O)[C@H](CC(C)C)NC(=O)OCc1ccccc1` [MG132] (Cbz-Leu-Leu-Leu-aldehyde), the ubiquitin signal result in series [2] (5 µM MG132 (proteasome inhibitor)) is listed as “can enhance the ubiquitin signal”.

Take `CCNc1nc(Nc2cc(F)c(C(=O)NCCCCNc3cccc4c3C(=O)N(C3CCC(=O)NC3=O)C4=O)cc2OC)ncc1C(F)(F)F` (stereo not drawn) [PROTAC 33]: the “LRRK2 ubiquitination (ubiquitin signal)” value in series [2] was “unable to increase the ubiquitin signal”. Also, the IC50 in series [3] worked out at 14.7 ± 6.14 nM.

These data come from article PMC8048960 (Chemmedchem, 2020).
